Measurements from patent US9278982B2, “Targeting human thymidylate kinase induces DNA repair toxicity in malignant tumor cells” (NATIONAL YANG-MING UNIVERSITY, priority 2010, dated 2016).
Entries after “also recorded” stand apart in the source; their conditions may differ. One block for each compound: values may come before it.

Key:
panel of cell lines = test: Doxorubicin sensitization, MTS viability assay, summary over the panel of cell lines; type: cell-based, human; conditions: all these cell lines; 72 h pre-treatment
Experimental: (§1) FIG. 16. In vitro and in vivo effect of YMU1 on doxorubicin sensitization. (A) A panel of cell lines were pre-treated with vehicle, YMU1 (compound 21), D6 (ethyl 4-(2-chloroacetyl)piperazine-1-carboxylate) or D7 (compound 28) for 3 days and were exposed to different concentration of doxorubicin for 4 h. […] The enhancement (fold) of doxorubicin sensitivity in each cell line was calculated. Data represent mean±s.d., n=3; each experiment was quadruplex. Inset indicates the IC50 value of doxorubicin in various cell lines. […] Following overnight culture, cells were refreshed with growth medium. After 14 days of culture, colonies were fixed, stained by crystal violet and counted. (C) HCT-116 p53^−/− cells were subcutaneously implanted in the right flank of Balb/c nude mice (each experimental group n=8). Arrow indicated the time of stopping drug treatment. The tumor volume was estimated as described in Methods of the Invention section. (D) After 2 weeks recovered from treatment, mice were sacrificed for tumor weight measurement. Data represent mean±s.e.m; **, P<0.01 by a two-tailed Student's t-test. (E) Ki 67 proliferation marker staining of tumor shown in left panel. Scale bar, 50 μm. (F) Model of doxorubicin sensitization by YMU1 in malignant cancer cells. Both R2/R1 and TMPK are recruited to the site of doxorubicin-induced double-strand breaks, where dATP, dGTP, dCTP, dTTP and dUTP are site-specific synthesized. Inhibition of TMPK decreases dTTP formation at DNA damage sites, causing futile DNA repair due to dUTP incorporation.
(§2) Next, various human cancer cell lines were treated with YMU1, D6 or D7 for 72 h to test the potential of TMPK inhibitor in doxorubicin sensitization. After exposure to different concentration of doxorubicin for 4 h, cells were refreshed for viability analysis after 2 days and the IC50 value for doxorubicin in each of the cell lines was determined (FIG. 16A and Table 2).
The ability of YMU1 to sensitize non-tumorigenic mammary cycling H184B5F5/M10, MCF10A, primary human mammary epithelial (HMEC) and primary renal epithelial (HREC) cells and IMR-90 embryonic lung fibroblasts to doxorubicin was much weaker.
(§3) Cells plated into a 96-well plate (10^3 cells/well) were treated and cell viability was measured by MTS assay (Promega) (Cory et al., 1991). An annexin V-fluorescein isothiocyanate (FITC) apoptosis kit (Calbiochem) was used to detect apoptosis. The cell cycle analysis was performed by staining cells with propidium iodide (PI) for fluorescence-activated cell sorter (FACS) analysis with CellQuest software.

TMPK [1] = molecular target: T1, TMPK (Homo sapiens, UniProt P23919); test: In vitro TMPK inhibitory activity of TMPK inhibitor derivatives (inhibition yield); type: biochemical; design: GST (N, cleaved yes); made in house; host or cells: E. coli JM109 (pGEX-2T-hTMPK), inferred; conditions: 2 μM; n=3 or 6; read-out: inhibition yield, normalized to compound 21 (YMU1) = 100%
T1 sequence (P23919 1-212): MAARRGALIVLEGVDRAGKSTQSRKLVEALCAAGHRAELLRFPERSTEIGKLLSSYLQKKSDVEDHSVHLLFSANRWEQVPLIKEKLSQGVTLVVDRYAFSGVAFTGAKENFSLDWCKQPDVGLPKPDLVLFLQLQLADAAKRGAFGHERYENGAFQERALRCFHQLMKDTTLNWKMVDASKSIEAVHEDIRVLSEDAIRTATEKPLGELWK
Description: Chemical structures of the different TMPK inhibitor derivatives tested for in vitro TMPK inhibitory activity and in vivo doxorubicin sensitization activity (in MDA-MB231 cells) are depicted below.

TMPK [2] = molecular target: T1, TMPK; test: Luciferase-coupled TMPK assay; type: biochemical; design: GST (N, cleaved yes); made in house; host or cells: E. coli JM109 (pGEX-2T-hTMPK); conditions: purified hTMPK protein (0.5 μg), 10 min preincubation; listed as D7
Experimental: FIG. 12. Identification of a novel hTMPK inhibitor. (A) A screen of TMPK inhibitor by luciferase-coupled assay. (B) The chemical structures of YMU1 (compound 21) and related molecules. (C) Effect of YMU1 and derivative compounds on hTMPK inhibition using purified hTMPK protein (0.5 μg) with 10 min preincubation prior to reaction using luciferase-coupled TMPK analysis. (D) Effect of YMU1 on activity of purified TMPK (0.5 μg) and GST-hTK1 protein (5 μg) with 10 min preincubation prior to reaction. Data represent mean±s.d. (n=4) (E) Molecular models of the TMPK-YMU1 complex. Left panel: TMPK/ATP/Mg+2; right panel: TMPK/YMU1. The TMPK is represented in surface electrostatic potential (upper) and structural ribbon (lower). ATP and YMU1 are shown in green and blue stick, respectively, with colored atom (O, red; S, yellow; P, orange). TMP is shown in white backbone and Mg+2 in purple. Arrow indicates the position of Asp15.
Based on the functional requirement of TMPK in DNA repair specifically in tumor cells with elevated level of R2 expression, we searched for inhibitors of hTMPK that might be useful in selectively sensitizing tumor cells to doxorubicin. […] The synthetic procedure and structural elucidation of YMU1 (compound 21) are described in the Methods of the Invention section of the application.
The TMPK reaction was started by adding purified hTMPK in 50 μl of TMPK assay buffer (100 mM Tris-HCl, pH 7.5, 100 mM KCl, 10 mM MgCl2, 50 μM ATP and 100 μM dTMP) in 96 wells plate at 25° C. for 10 min and terminated by adding 200 μl of DTNB (100 μM), followed by transferring 10 μl of reaction solution to a white 96-wellplate containing 90 μl of luciferase assay buffer (50 mM Glycine, 0.5 mM EDTA and 5 mM EDTA, pH 7.0, 0.1 μg of luciferase, 50 μM luciferin and 0.1% BSA). The luminescence was measured with a luminescence counter (Packard).

[3] = system: H184B5F5/M10, MCF-10A, MCF-7 and HCT-116 p53−/− cells; test: Colony assay of cell viability, YMU1 versus FdUrd; conditions: various concentrations thrice a week, 14 days
Experimental: (B) H184B5F5/M10 cells were seeded onto 100 mm-dish at 5,000 cells/dish. MCF-10A, MCF-7 and HCT-116 p53^−/− cells were seeded onto 6 well plate at 600 cells/well. Following overnight culture, cells were treated with various concentration of YMU1 or FdUrd thrice a week. After 14 days colonies were fixed, stained by crystal violet.
We also compared the effect of YMU1 and FdUrd on cell viability of non-tumorigenic mammary cycling cells, H184B5F5/M10 and MCF-10A and tumor lines, MCF-7 and HCT-116 p53^−/− cells.
After 14 days, colonies were fixed and stained by crystal violet and counted.

HCT-116 p53−/− cells = test: γH2AX foci staining for induction of DNA damage (genomic toxicity); type: cell-based, human; conditions: YMU1 2 μM 2 days; FdUrd 2 μM 1 day
Description: FIG. 14. Effect of YMU1 on genomic toxicity and DNA repair. […] After overnight, cells were exposed to doxorubicin and recovered. […]
TMPK and TS are key enzymes in dTTP synthesis and TS has been a major chemotherapy target (Garg et al., 2010). Inhibition of TS by FdUrd causes genome toxicity (Longley et al., 2003). Given the shared role of TMPK and TS in dTTP synthesis, we next compared the effects of blocking TMPK and TS by either shRNA interference or inhibitor treatment on the induction of DNA damage.
For γH2AX, Rad51 and XRCC1 staining, cells were fixed with 4% paraformaldehyde for 30 min at room temperature and were incubated with TBS (50 mM Tris-HCl, pH 7.4, 150 mM NaCl) plus 0.3% Triton X-100 for 5 min. The coverslips were blocked with MAXblock™ (Active Motif) for 1 h at 37° C., followed by staining with primary antibodies: anti-γH2AX monoclonal antibody (1:1000), anti-Rad51 polyclonal antibody (1:500) or anti-XRCC1 monoclonal antibody (1:500) overnight at 4° C. After extensive washing, cells were stained with secondary antibodies and Hoechst 33342 for 1 h at room temperature. After mounting, cells were analyzed and photographed with a Carl Zeiss fluorescence microscope equipped with AxioCam digital camera and Axio Vision Rel. 4.8 imaging software.

HCT-116p53−/− = test: Doxorubicin sensitization, MTS viability assay; type: cell-based, human; conditions: Homo sapiens, vehicle 72 h, doxorubicin 4 h, viability after 2 days, read-out: IC50 of doxorubicin treatment, Vehicle
Experimental: as §1, §2, §3

HMEC = test: Doxorubicin sensitization, MTS viability assay; type: cell-based, human; conditions: Homo sapiens, vehicle 72 h, doxorubicin 4 h, viability after 2 days, read-out: IC50 of doxorubicin treatment, Vehicle
Experimental: as §1, §2, §3

SaoS2 = test: Doxorubicin sensitization, MTS viability assay; type: cell-based, human; conditions: Homo sapiens, SAOS-2, vehicle 72 h, doxorubicin 4 h, viability after 2 days, read-out: IC50 of doxorubicin treatment, Vehicle
Experimental: as §1, §2, §3

H1299 = test: Doxorubicin sensitization, MTS viability assay; type: cell-based, human; conditions: Homo sapiens, NCI-H1299, vehicle 72 h, doxorubicin 4 h, viability after 2 days, read-out: IC50 of doxorubicin treatment, Vehicle
Experimental: as §1, §2, §3

HCC1037 = test: Doxorubicin sensitization, MTS viability assay; type: cell-based, human; conditions: Homo sapiens, vehicle 72 h, doxorubicin 4 h, viability after 2 days, read-out: IC50 of doxorubicin treatment, Vehicle
Experimental: as §1, §2, §3

CL-1-0 = test: Doxorubicin sensitization, MTS viability assay; type: cell-based, human; conditions: Homo sapiens, CL1-0, vehicle 72 h, doxorubicin 4 h, viability after 2 days, read-out: IC50 of doxorubicin treatment, Vehicle
Experimental: as §1, §2, §3

HCT-116p53+/+ = test: Doxorubicin sensitization, MTS viability assay; type: cell-based, human; conditions: Homo sapiens, vehicle 72 h, doxorubicin 4 h, viability after 2 days, read-out: IC50 of doxorubicin treatment, Vehicle
Experimental: as §1, §2, §3

HT-29 = test: Doxorubicin sensitization, MTS viability assay; type: cell-based, human; conditions: Homo sapiens, vehicle 72 h, doxorubicin 4 h, viability after 2 days, read-out: IC50 of doxorubicin treatment, Vehicle
Experimental: as §1, §2, §3

U2OS = test: Doxorubicin sensitization, MTS viability assay; type: cell-based, human; conditions: Homo sapiens, vehicle 72 h, doxorubicin 4 h, viability after 2 days, read-out: IC50 of doxorubicin treatment, Vehicle
Experimental: as §1, §2, §3

MDA-MB468 = test: Doxorubicin sensitization, MTS viability assay; type: cell-based, human; conditions: Homo sapiens, MDA-MB-468, vehicle 72 h, doxorubicin 4 h, viability after 2 days, read-out: IC50 of doxorubicin treatment, Vehicle
Experimental: as §1, §2, §3

MCF-10A = test: Doxorubicin sensitization, MTS viability assay; type: cell-based, human; conditions: Homo sapiens, vehicle 72 h, doxorubicin 4 h, viability after 2 days, read-out: IC50 of doxorubicin treatment, Vehicle
Experimental: as §1, §2, §3

HREC = test: Doxorubicin sensitization, MTS viability assay; type: cell-based, human; conditions: Homo sapiens, vehicle 72 h, doxorubicin 4 h, viability after 2 days, read-out: IC50 of doxorubicin treatment, Vehicle
Experimental: as §1, §2, §3

Capan1 = test: Doxorubicin sensitization, MTS viability assay; type: cell-based, human; conditions: Homo sapiens, CAPAN-1, vehicle 72 h, doxorubicin 4 h, viability after 2 days, read-out: IC50 of doxorubicin treatment, Vehicle
Experimental: as §1, §2, §3

IMR-90 = test: Doxorubicin sensitization, MTS viability assay; type: cell-based, human; conditions: Homo sapiens, vehicle 72 h, doxorubicin 4 h, viability after 2 days, read-out: IC50 of doxorubicin treatment, Vehicle
Experimental: as §1, §2, §3

H184B5F5/M10 = test: Doxorubicin sensitization, MTS viability assay; type: cell-based, human; conditions: Homo sapiens, vehicle 72 h, doxorubicin 4 h, viability after 2 days, read-out: IC50 of doxorubicin treatment, Vehicle
Experimental: as §1, §2, §3

inhibition at 2 µM (TMPK [1]): 14.7%
melting point: 88 to 90 °C
SMILES: CCOC(=O)N1CCN(C(=O)COc2nsc3nc(C)cc(C)c23)CC1 [compound 28, Ethyl 4-(2-(4,6-dimethylisothiazolo[5,4-b]pyridin-3-yloxy)acetyl)piperazine-1-carboxylate]
doxorubicin sensitization effect (panel of cell lines): had no doxorubicin sensitization effect
inhibition against hTMPK (TMPK [2]): Neither D6 (as the piperazine fragment of YMU1) nor D7 (as the O-alkylation isomer of YMU1) showed any inhibition; also recorded: do not inhibit TMPK

SMILES: O=c1[nH]c(=O)n([C@H]2C[C@H](O)[C@@H](CO)O2)cc1F [FdUrd, 5-fluoro-2′deoxyuridine]
death of cells in colony assay [3]: caused death of these cells
induction of DNA damage (γH2AX staining) (HCT-116 p53−/− cells): induced severe DNA damage

SMILES: COc1cccc2c1C(=O)c1c(O)c3c(c(O)c1C2=O)C[C@@](O)(C(=O)CO)C[C@@H]3O[C@H]1C[C@H](N)[C@H](O)[C@H](C)O1 [doxorubicin, reference compound]
IC50 (HCT-116p53−/−): 4.1 ± 0.01 µM
IC50 (HMEC): 23.6 ± 1.23 µM
IC50 (SaoS2): 7.83 ± 0.02 µM
IC50 (H1299): 7.19 ± 0.77 µM
IC50 (HCC1037): 5.52 ± 0.39 µM
IC50 (CL-1-0): 4.9 ± 0.2 µM
IC50 (HCT-116p53+/+): 2660 ± 490 nM
IC50 (HT-29): 12.1 ± 1.64 µM
IC50 (U2OS): 4.58 ± 0.14 µM
IC50 (MDA-MB468): 250 ± 80 nM
IC50 (MCF-10A): 5.22 ± 0.39 µM
IC50 (HREC): 22.1 ± 1.18 µM
IC50 (Capan1): 1130 ± 20 nM
IC50 (IMR-90): 14.2 ± 3.21 µM
IC50 (H184B5F5/M10): 4.15 ± 0.06 µM
